Measurements taken from patent US20260265239A1, “CRYSTAL FORM OF 2,6-PIPERIDINEDIONE COMPOUND, AND PREPARATION METHOD THEREFOR AND USE THEREOF” (ZHANGZHOU PIEN TZE HUANG PHARMACEUTICAL CO., LTD., priority 2023, published 2026).

What was measured:
[1] = Stability in solvents: anti-solvent addition, XRPD; type: physicochemical; details: anti-solvent Water
Description: (§1) • Instrument model: PANalytacal X-ray Powder Diffractometer • Test method: Approximately 10 to 20 mg of the sample is used for XRPD detection.
(§2) The detailed XRPD parameters are as follows: • X-ray tube: Cu, kα, (λ=1.540598 Å, λ=1.544426 Å). • X-ray tube voltage: 45 kV, X-ray tube current: 40 mA • Divergence slit: ⅛° • Scan mode: continuous • Scanning range (°2Theta): 3-40 • Scanning time per step (s): 46.7 • Scanning step size (°2Theta): […] • Test duration: approximately 5 min
While stirring (1000 rpm), the anti-solvent listed in the table below was added dropwise to the clear solution until solids precipitated, or until the total volume of anti-solvent reached 10 mL. Samples without precipitation were stirred in suspension at 5° C., while clear samples were transferred to −20° C. for suspension stirring. If still clear, the samples were transferred to room temperature for volatilization. The precipitated solids were isolated and subjected to XRPD testing.

[2] = Solid stability test under high temperature, high humidity and strong light exposure; type: physicochemical
Description: Samples placed under high-temperature conditions were examined in an electric blast drying oven, while samples placed under high-humidity conditions were examined in a comprehensive drug stability test chamber. Sampling and testing were conducted on the 5th, 10th, and 30th days, and the test results were compared with the initial test results on day 0. Samples placed under strong light exposure conditions were left open, and sampling and testing were performed on the 5th and 10th days, with the test results compared to the initial test results on day 0.

[3] = Hygroscopicity study by dynamic vapor sorption (DVS); type: physicochemical
Description: • Instrument model: DVS Intrinsic Plus Dynamic Vapor Sorption Analyzer from SMS (Surface Measurement Systems) • Test conditions: The sample (10 to 20 mg) is placed in a DVS sample pan for testing.
The detailed DVS parameters are as follows: • Temperature: 25° C. • Equilibrium: dm/dt=0.002%/min (minimum: 10 min, maximum: 180 min) • Drying: 120 min at 0% RH • RH (%) test steps: 10% • RH (%) test step range: 0%-95%-0%
The hygroscopicity evaluation is classified as follows:
• DVS Intrinsic Plus Dynamic Vapor Sorption Analyzer from SMS (Surface Measurement Systems).

[4] = Pressure (mechanical) stability, XRPD; type: physicochemical; details: 350 MPa
Description: as §1, §2
The sample in the mold was compressed under a pressure of 350 MPa. The solid was collected for XRPD characterization.

[5] = Stability in solvents: suspension stirring at room temperature, XRPD; type: physicochemical; details: acetone, tetrahydrofuran, 1,4-dioxane, methanol, ethanol, isopropanol, water and mixed solvents with water
Description: as §1, §2
The resulting suspensions were magnetically stirred at room temperature (1000 rpm) for 3 days, then centrifuged to collect the solids, which were subjected to XRPD testing.

[6] = Pharmacokinetic evaluation in beagle dogs; type: in vivo; details: Intragastric administration, 5 mg/kg, listed as Crystal Form A of Compound of Formula (I)
From the text: Male beagle dogs were selected as the experimental animals in this study. The LC/MS/MS method was employed to quantitatively determine the plasma drug concentrations at different time points after intravenous injection or intragastric administration of the test compound, aiming to evaluate the pharmacokinetic characteristics of the compound of the present disclosure in beagle dogs.
Beagle dogs (male, 7 to 10 kg, Beijing Mars Biotechnology Co., Ltd.).
A solution of the test compound was slowly injected intravenously into beagle dogs (fed) via the peripheral vein (vehicle: 5% DMSO/10% Solutol/85% H2O), or administered intragastrically to beagle dogs (fed). For intravenous administration, 0.5 mL of blood was collected from the peripheral vein at 0.083, 0.25, 0.5, 1, 2, 4, 6, 8, and 24 h after administration, placed in EDTA-2K anticoagulant tubes, and centrifuged at 3200 g for 10 minutes at 2 to 8° C. to separate the supernatant. For intragastric administration, 0.5 mL of blood was collected from the peripheral vein at 0.083, 0.25, 0.5, 1, 2, 4, 6, 8, and 24 h after administration, placed in EDTA-2K anticoagulant tubes, and centrifuged at 3200 g for 10 minutes at 2 to 8° C. to separate the supernatant. Plasma drug concentrations were determined by the LC-MS/MS method, and relevant pharmacokinetic parameters were calculated using Phoenix WinNonlin 6.3 or 8.3.5 pharmacokinetic software with non-compartmental model linear-log trapezoidal method.

[7] = Solid stability test under accelerated conditions; type: physicochemical
From the text: Samples were taken for testing at the 1st, 2nd, and 3rd months, and the test results were compared with the initial test results at day 0.

[8] = Solid stability test under long-term conditions; type: physicochemical
From the text: Samples were taken for testing at the 1st and 2nd months, and the test results were compared with the initial test results at day 0.

[9] = High Humidity (Room Temperature/Relative Humidity: 92.5%, Open), Day 5
[10] = High Humidity (Room Temperature/Relative Humidity: 92.5%, Open), Day 10
[11] = High Temperature (60° C., Open), Day 5
[12] = High Temperature (60° C., Open), Day 10
[13] = Strong Light Exposure (5000 ± 500 Lux, 90 μw/cm^2, Open), Day 10
[14] = Strong Light Exposure test, Day 10 (Light Exposure Control)
[15] = 40° C./75% Relative Humidity, Sealed + Desiccant, 1 month
[16] = 40° C./75% Relative Humidity, Sealed + Desiccant, 2 month
[17] = 40° C./75% Relative Humidity, Sealed + Desiccant, 3 month
[18] = 25° C./60% Relative Humidity, Sealed + Desiccant, 1 month
[19] = 25° C./60% Relative Humidity, Sealed + Desiccant, 2 month

## O=C1CCC(c2noc3ccc4c(NC(=O)CN5CCN(C[C@H]6CC[C@H](n7cc(NC(=O)c8coc(-c9ccnc(NCC%10CC%10)c9)n8)c(C(F)F)n7)CC6)CC5)cccc4c23)C(=O)N1 (stereo partly shown)
[1]; solvent Dimethyl sulfoxide
  XRPD Results Anti-Solvent Addition: Amorphous
[1]; solvent N-Methylpyrrolidone
  XRPD Results Anti-Solvent Addition: Amorphous
[2]; Day 0
  Content: 100.0%
  Total Impurities: 2.4%
[2]; [9]
  Content: 99.7%
  Total Impurities: 2.4%
[2]; [10]
  Content: 100.1%
  Total Impurities: 2.5%
[2]; [11]
  Content: 102.8%
  Total Impurities: 2.5%
[2]; [12]
  Content: 102.5%
  Total Impurities: 2.5%
[2]; [13]
  Content: 102.3%
  Total Impurities: 2.6%
[2]; [14]
  Content: 101.5%
  Total Impurities: 2.4%
[2]; high temperature, high humidity, and strong light exposure conditions
  stability (conclusion): good stability
[3]
  crystal form before and after DVS: no change in crystal form
[3]; DVS, 25° C. and 80% RH
  ΔW (hygroscopic weight gain): 3.536%
[4]
  stability under compression mold pressure (conclusion): good stability
[5]
  stability in solvents (conclusion): good stability
[6]
  Area Under the Drug-Time Curve (0-inf): 8.18 µM·h
  Peak Concentration: 0.70 µM
  Time to Peak Concentration: 5.00 h
[7]; [15]
  Content: 99.3%
  Total Impurities: 2.7%
[7]; [16]
  Content: 99.5%
  Total Impurities: 2.7%
[7]; [17]
  Content: 99.1%
  Total Impurities: 2.7%
[7]; Day 0
  Content: 100.0%
  Total Impurities: 2.4%
[7]; accelerated conditions of 40° C./75% relative humidity
  stability (conclusion): good stability
[8]; [18]
  Content: 99.5%
  Total Impurities: 2.8%
[8]; [19]
  Content: 99.2%
  Total Impurities: 2.9%
[8]; Day 0
  Content: 100.0%
  Total Impurities: 2.4%
[8]; long-term conditions of 25° C./60% relative humidity
  stability (conclusion): good stability
